Values quoted from earlier work, collected in patent publication US11737981B2, “Cellulosic polymer nanoparticles and methods of forming them” (The Trustees of Princeton University, priority 2017, dated 2023).
≈ marks a conversion by molar mass, not a printed value.

Row | Compound | solubility in water
1 | CCC(C)n1ncn(-c2ccc(N3CCN(c4ccc(OCC5COC(Cn6cncn6)(c6ccc(Cl)cc6Cl)O5)cc4)CC3)cc2)c1=O (stereo not drawn) [Itraconazole] | ~9.6 µg/mL (≈ 13.6 µM)
2 | CCCCN(CCCC)CC(O)c1cc(Cl)cc2c1-c1ccc(Cl)cc1/C2=C/c1ccc(Cl)cc1 (stereo not drawn) [Lumefantrine] | about 0.031 mg/L
3 | artefenomel mesylate [OZ439 mesylate] | about 0.47 mg/L
